The record followed here is patent US20110098296A1, “Thiazole And Oxazole Kinase Inhibitors” (priority 2007, published 2011).

SMILES strings stand for the structures. pIC50: −log10 of the molar value. Structures can show the parent of a compound that is named as a salt.

What is called pIC50 is the IC50 on a negative log10 scale, so that one unit is a factor of ten.

One assay has as its system SK-MEL-3 tumor cells. Kind of assay: Method C: Cell Growth Inhibition Assay (CellTiter-Glo), SK-MEL-3. The note with it: Homo sapiens, SK-MEL3, 72 h, 3 days, 4-parameter fit. Type of assay: cell-based. How it is done:
(§1) Human breast tumor cells (BT474) were cultured in RPMI (Mediatech 50-011-PB), containing 10% FBS (JRH Biosciences 12176) and 1% penicillin-streptomycin (Invitrogen 15140). Human head and neck tumor cells (HN5) were cultured in high glucose DMEM (Mediatech 50-013-PB) containing 10% FBS and 1% penicillin-streptomycin. Human colon tumor cells (Colo205) were cultured in RPMI (Mediatech 50-020-PB) containing 10% FBS and 1% penicillin-streptomycin. Human melanoma cancer cells (SK-MEL-28) were cultured in EMEM with nonessential amino acids (Mediatech 50-011-PB) containing 10% FBS, 1% sodium pyruvate (JT Baker 3354-04), and 1% penicillin-streptomycin. Human melanoma cancer cells (A375P F11s) were cultured in RPMI (Mediatech 50-020-PB) containing 10% FBS, 1% sodium pyruvate, and 1% penicillin-streptomycin. Human colon cancer cells (HT-29) were cultured in high glucose DMEM (Mediatech 50-013-PB) containing 10% FBS and 1% penicillin-streptomycin. Human melanoma cancer cells (SK-MEL-3) were cultured in McCoy's 5A (50-025-PB) containing 15% FBS, and 1% penicillin-streptomycin. All cell lines were maintained at 37° C. in a humidified 5% CO2, 95% air incubator. Cells were harvested using trypsin/EDTA (Invitrogen 25200), counted using an haemocytometer, and plated. For 96-well assays (using white full-area NUNC plates cat. #136102), cells were plated in 105 μL at the following densities (cells/well): HN5, 500; Colo205, 500; SK-MEL-28, 500; A375P-F11s, 500; HT-29, 500; SK-MEL-3, 500; and BT474, 3000. For 384-well assays (white full-area NUNC plates, cat. #781080), cells were plated in 48 μL at the following densities (cells/well): HN5, 500; Colo205, 500; SK-MEL-28, 500; A375P-F11s, 500; HT29, 500; SK-MEL-3, 500; and BT474, 2000.
(§2) The next day, compounds were diluted as follow: For 96-well assays, 13.5 μL of compound in DMSO were diluted using nine (9) serial 1:3 dilutions of 4.5 μL in 9 μL of DMSO. Medium (270 μl/well of RPMI with 10% FBS and 1% penicillin-streptomycin) was added to the plates. Aliquots (7 μl) were added to cells in the final assay giving a final DMSO concentration of 0.2%. For 384-well assays, 15 μL of compound in DMSO were diluted using nine (9) serial 1:3 dilutions of 5 μL in 10 μL of DMSO, followed by a further dilution of 5 μL of compound with 95 μL of medium, of which 2 μL were added to cells in the final assay giving a final DMSO concentration of 0.2%. Cells were incubated at 37° C., 5% CO2 for 3 days.
(§3) Total ATP was measured (as a surrogate estimate of cell number) using CellTiter-Glo® reagent (Promega G7571). Briefly, plates were removed from the incubator and allowed to equilibrate to room temperature for 30 minutes. CellTiter-Glo® (25 μL or 55 μL for 384-well or 96-well assays, respectively) reagent was added to each well and plates were shaken on an orbital plate shaker for 2 mins. Plates were incubated without shaking for a further 30 mins and read on an LJL Analyst GT reader in luminometer mode with an integration time of 0.5 seconds per well. Percent inhibition of cell growth was calculated relative to DMSO vehicle-treated control wells. Concentration of compound required to give 50% inhibition of vehicle-treated control cell growth (IC50) was interpolated using a 4-parameter fit for determining IC50 using the following equation: Y=A+((B−A)/(1+((C/X)̂D))) where X=IC50.

In another assay the target is T1, EGFR (Homo sapiens, UniProt P00533).
T1 construct: made in house; host or cells: baculovirus expression system
T1 sequence (P00533 25-1210): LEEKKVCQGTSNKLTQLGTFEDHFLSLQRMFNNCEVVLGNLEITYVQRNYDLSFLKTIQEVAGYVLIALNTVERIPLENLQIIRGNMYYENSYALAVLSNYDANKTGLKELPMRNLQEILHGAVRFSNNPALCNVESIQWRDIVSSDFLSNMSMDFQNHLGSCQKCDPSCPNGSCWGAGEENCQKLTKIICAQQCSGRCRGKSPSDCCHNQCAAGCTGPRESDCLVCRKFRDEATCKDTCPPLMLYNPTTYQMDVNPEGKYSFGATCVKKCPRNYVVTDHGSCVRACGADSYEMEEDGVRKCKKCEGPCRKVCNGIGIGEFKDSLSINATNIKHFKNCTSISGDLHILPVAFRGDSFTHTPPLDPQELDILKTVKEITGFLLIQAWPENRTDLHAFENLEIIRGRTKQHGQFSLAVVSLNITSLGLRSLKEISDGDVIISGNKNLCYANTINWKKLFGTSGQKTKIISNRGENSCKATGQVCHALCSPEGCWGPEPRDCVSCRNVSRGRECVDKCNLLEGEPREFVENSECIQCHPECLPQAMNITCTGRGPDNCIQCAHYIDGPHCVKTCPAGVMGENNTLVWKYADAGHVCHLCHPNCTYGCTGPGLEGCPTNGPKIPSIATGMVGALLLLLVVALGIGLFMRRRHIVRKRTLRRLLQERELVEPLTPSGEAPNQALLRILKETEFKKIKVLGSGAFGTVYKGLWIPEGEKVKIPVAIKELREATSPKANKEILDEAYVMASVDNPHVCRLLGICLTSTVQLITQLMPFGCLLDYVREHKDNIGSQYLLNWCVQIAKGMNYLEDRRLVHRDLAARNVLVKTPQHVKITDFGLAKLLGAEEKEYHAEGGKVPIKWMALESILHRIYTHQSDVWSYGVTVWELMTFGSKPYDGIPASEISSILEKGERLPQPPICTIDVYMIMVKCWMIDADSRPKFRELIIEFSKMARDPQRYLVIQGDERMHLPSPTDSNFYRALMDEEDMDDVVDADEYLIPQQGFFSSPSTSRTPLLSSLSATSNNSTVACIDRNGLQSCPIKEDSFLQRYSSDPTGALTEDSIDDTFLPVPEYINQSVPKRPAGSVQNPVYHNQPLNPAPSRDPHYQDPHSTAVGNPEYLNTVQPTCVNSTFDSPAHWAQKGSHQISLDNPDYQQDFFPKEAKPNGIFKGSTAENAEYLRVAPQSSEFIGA
Kind of assay: EGFR substrate phosphorylation assay (HTRF). As to conditions: Method (A): Enzyme Mix incubated with compound at 20° C. for 1 hr, reaction started by adding Substrate Mix. Type of assay: biochemical. The method, boiled down:
(§4)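 Baculovirus-expressed kinase (0.8 nM EGFR or 10 nM ErbB2 in enzyme mix) with Peptide C 0.8 μM and ATP 20 μM (substrate-mix levels), MOPS pH 7.5, MnCl2; 90 min, 20 °C, HTRF anti-phosphotyrosine. Method A adds 1 h enzyme–compound preincubation; B none. pIC50, final compound 0.00027–47.6 μM.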
In general terms: TR-FRET usually uses a lanthanide donor and a delayed reading to cut background.

The next assay relates to HT-29 tumor cells. Kind of assay: Method C: Cell Growth Inhibition Assay (CellTiter-Glo), HT-29. Type of assay: cell-based. As to conditions: Homo sapiens, HT-29, 72 h, 3 days, 4-parameter fit. How it is done: as §1, §2, §3
For the next assay, the target named is T2, ErbB2 (Homo sapiens, UniProt P04626).
T2 construct: made in house; host or cells: baculovirus expression system
T2 sequence (P04626 23-1255): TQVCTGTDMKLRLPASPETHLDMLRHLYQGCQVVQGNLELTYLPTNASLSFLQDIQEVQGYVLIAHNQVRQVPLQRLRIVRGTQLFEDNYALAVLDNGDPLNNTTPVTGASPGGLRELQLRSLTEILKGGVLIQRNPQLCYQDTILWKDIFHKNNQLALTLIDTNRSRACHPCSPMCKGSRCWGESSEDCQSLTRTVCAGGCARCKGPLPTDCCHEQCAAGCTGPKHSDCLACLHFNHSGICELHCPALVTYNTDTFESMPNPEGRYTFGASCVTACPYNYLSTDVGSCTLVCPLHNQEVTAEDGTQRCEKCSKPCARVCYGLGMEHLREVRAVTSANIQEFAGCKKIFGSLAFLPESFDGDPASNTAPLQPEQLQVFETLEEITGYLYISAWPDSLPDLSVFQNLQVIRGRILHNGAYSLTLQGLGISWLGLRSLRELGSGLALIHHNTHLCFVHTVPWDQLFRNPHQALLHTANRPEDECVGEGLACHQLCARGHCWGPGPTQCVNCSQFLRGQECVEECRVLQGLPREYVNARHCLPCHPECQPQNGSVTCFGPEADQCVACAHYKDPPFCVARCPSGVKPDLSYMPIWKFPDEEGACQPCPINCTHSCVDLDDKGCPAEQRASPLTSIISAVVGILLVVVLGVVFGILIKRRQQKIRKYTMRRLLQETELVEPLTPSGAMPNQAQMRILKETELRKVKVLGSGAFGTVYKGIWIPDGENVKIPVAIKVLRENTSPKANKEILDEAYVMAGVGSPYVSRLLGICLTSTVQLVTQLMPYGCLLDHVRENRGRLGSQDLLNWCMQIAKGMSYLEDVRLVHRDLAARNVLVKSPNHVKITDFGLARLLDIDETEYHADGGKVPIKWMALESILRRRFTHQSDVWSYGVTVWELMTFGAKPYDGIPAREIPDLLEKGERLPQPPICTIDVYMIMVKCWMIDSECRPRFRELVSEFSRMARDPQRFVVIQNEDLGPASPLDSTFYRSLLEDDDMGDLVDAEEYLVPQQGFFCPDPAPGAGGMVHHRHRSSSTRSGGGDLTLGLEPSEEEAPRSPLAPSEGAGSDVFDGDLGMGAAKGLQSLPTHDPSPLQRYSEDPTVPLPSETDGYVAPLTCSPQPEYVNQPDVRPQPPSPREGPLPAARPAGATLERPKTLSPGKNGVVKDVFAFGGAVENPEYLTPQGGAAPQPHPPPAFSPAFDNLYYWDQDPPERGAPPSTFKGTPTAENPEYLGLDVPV
Description: ErbB-2 substrate phosphorylation assay (HTRF). Type of assay: biochemical. The note with it: Method (A): Enzyme Mix incubated with compound at 20° C. for 1 hr, reaction started by adding Substrate Mix. The method, boiled down:
as §4

Another assay concerns HN5 tumor cells. Kind of assay: Method C: Cell Growth Inhibition Assay (CellTiter-Glo), HN5. Type of assay: cell-based. The note with it: Homo sapiens, 72 h, 3 days, 4-parameter fit. How it is done: as §1, §2, §3
The next assay concerns BT474 tumor cells. Kind of assay: Method C: Cell Growth Inhibition Assay (CellTiter-Glo), BT474. As to conditions: Homo sapiens, BT-474, 72 h, 3 days, 4-parameter fit. Type of assay: cell-based.
The next assay concerns A375P F11s tumor cells. Description: Method C: Cell Growth Inhibition Assay (CellTiter-Glo), A375P F11s. Type of assay: cell-based. As to conditions: Homo sapiens, 72 h, 3 days, 4-parameter fit. How it is done:
as §1, §2, §3
A general note: ATP-based viability assays read luminescence as a measure of living cells.

Another assay deals with SK-MEL-28 tumor cells. Description: Method C: Cell Growth Inhibition Assay (CellTiter-Glo), SK-MEL-28. Type of assay: cell-based. As to conditions: Homo sapiens, SK-MEL-28, 72 h, 3 days, 4-parameter fit. The method, boiled down: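 Growth inhibition is expressed as the concentration giving 50% inhibition relative to vehicle controls, derived from a 4-parameter fit. Tumor cells plated at 500 per well were exposed for 3 days to compound (0.2% DMSO) before total ATP was quantified by CellTiter-Glo.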

The next assay has as its system Colo205 tumor cells. Kind of assay: Method C: Cell Growth Inhibition Assay (CellTiter-Glo), Colo205. As to conditions: Homo sapiens, COLO 205, 72 h, 3 days, 4-parameter fit. Type of assay: cell-based. The procedure, abridged:
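Cells were seeded at 500 per well and dosed the next day with nine serial 1:3 compound dilutions (0.2% DMSO final), then grown 3 days at 37° C, 5% CO2. ATP was measured by CellTiter-Glo luminescence, and IC50 was interpolated by 4-parameter fit of percent inhibition versus DMSO controls.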

Take `COc1ccc(Nc2nccc(-c3sc(N)nc3-c3cccc(NC(=O)c4c(F)cccc4F)c3)n2)cc1OCCN(C)C` [Example 2]: the pIC50 with SK-MEL-3 tumor cells is 6.00 to 7.00; at EGFR, more than 7.00; in the assay on HT-29 tumor cells, 6.00 to 7.00; on ErbB2, more than 7.00; with HN5 tumor cells, more than 7.00; in the assay with BT474 tumor cells, more than 7.00. For the same compound, the pIC50 with A375P F11s tumor cells is 6.00 to 7.00; in the assay on SK-MEL-28 tumor cells, 6.00 to 7.00; in the assay on Colo205 tumor cells, more than 7.00.
With `CN(C)CCOc1ccc(Nc2nccc(-c3sc(NCCCN4CCOCC4)nc3-c3cccc(NC(=O)c4c(F)cccc4F)c3)n2)cc1Cl` [Example 4, N-[3-(5-{2-[(3-Chloro-4-{[2-(dimethylamino)ethyl]oxy}phenyl)-amino]-4-pyrimidinyl}-2-{[3-(4-morpholinyl)propyl]amino}-1,3-thiazol-44)phenyl]-2,6-difluorobenzamide], the negative logarithm of the IC50 (pIC50) with SK-MEL-3 tumor cells is 6.00 to 7.00; at EGFR, more than 7.00; with HT-29 tumor cells, 6.00 to 7.00; at ErbB2 it was more than 7.00; in the assay on HN5 tumor cells, 6.00 to 7.00; in the assay with BT474 tumor cells, 6.00 to 7.00. For the same compound, the pIC50 with A375P F11s tumor cells, with SK-MEL-28 tumor cells and with Colo205 tumor cells was 6.00 to 7.00 throughout.
Consider `CN(C)CCOc1ccc(Nc2nccc(-c3sc(N)nc3-c3cccc(NC(=O)c4c(F)cccc4F)c3)n2)cc1Cl` [Example 5, N-(3-{2-Amino-5-[2-({3-chloro-4-[2-(dimethylamino)ethoxy]-phenyl}amino)pyrimidin-4-yl]-1,3-thiazol-4-yl}phenyl)-2,6-difluorobenzamide-formic acid], for which the pIC50 in the assay with SK-MEL-3 tumor cells is 6.00 to 7.00; at EGFR, more than 7.00; in the assay with HT-29 tumor cells it was 6.00 to 7.00; at ErbB2, more than 7.00; with HN5 tumor cells, more than 7.00; with BT474 tumor cells, more than 7.00. Further, the pIC50 in the assay with A375P F11s tumor cells, in the assay on SK-MEL-28 tumor cells and in the assay with Colo205 tumor cells was 6.00 to 7.00 in each case.
For the compound `CN1CCc2ccc(Nc3nccc(-c4sc(N)nc4-c4cccc(NC(=O)c5c(F)cccc5F)c4)n3)cc2C1` [Example 10, trifluoroacetate], the negative-log IC50 (pIC50) is 6.00 to 7.00 with SK-MEL-3 tumor cells; more than 7.00 at EGFR; 6.00 to 7.00 in the assay on HT-29 tumor cells; more than 7.00 on ErbB2; more than 7.00 with HN5 tumor cells; more than 7.00 with BT474 tumor cells. The pIC50 in the assay with A375P F11s tumor cells, in the assay on SK-MEL-28 tumor cells and with Colo205 tumor cells was 6.00 to 7.00 each time.
Consider `COc1ccc(Nc2nccc(-c3sc(N)nc3-c3cccc(NC(=O)c4c(F)cccc4F)c3)n2)cc1N1CCN(C)CC1` [Example 11, N-{3-[2-Amino-5-(2-{[4-(methyloxy)-3-(4-methyl-1-piperazinyl)phenyl]amino}-4-pyrimidinyl)-1,3-thiazol-4-yl]phenyl}-2,6-difluorobenzamide trifluoroacetate], for which the pIC50 with SK-MEL-3 tumor cells is 6.00 to 7.00; on EGFR, more than 7.00; in the assay on HT-29 tumor cells, 6.00 to 7.00; at ErbB2, more than 7.00; in the assay on HN5 tumor cells, more than 7.00; with BT474 tumor cells, more than 7.00. The pIC50 in the assay with A375P F11s tumor cells was 6.00 to 7.00; in the assay on SK-MEL-28 tumor cells, more than 7.00; in the assay with Colo205 tumor cells, 6.00 to 7.00.
With `CN(C)C1Cc2ccc(Nc3nccc(-c4sc(N)nc4-c4cccc(NC(=O)c5c(F)cccc5F)c4)n3)cc2C1` (stereo not drawn) [Example 12, N-{3-[2-Amino-5-(2-{[2-(dimethylamino)-2,3-dihydro-1H-indeN-5-yl]amino}-4-pyrimidinyl)-1,3-thiazol-4-yl]phenyl}-2,6-difluorobenzamide], the negative logarithm of the IC50 (pIC50) in the assay with SK-MEL-3 tumor cells was 6.00 to 7.00; at EGFR, more than 7.00; in the assay on HT-29 tumor cells, 6.00 to 7.00; on ErbB2 it was more than 7.00; in the assay with HN5 tumor cells it was more than 7.00; in the assay with BT474 tumor cells, more than 7.00. For the same compound, the figures for the pIC50 in the assay with A375P F11s tumor cells, with SK-MEL-28 tumor cells and in the assay with Colo205 tumor cells were 6.00 to 7.00, less than 6.00 and 6.00 to 7.00, respectively.
On to `CN(C)CCOc1cccc(Nc2nccc(-c3sc(N4CCCCC4)nc3-c3cccc(NC(=O)c4c(F)cccc4F)c3)n2)c1` [Example 74, N-{3-[5-{2-[(3-{[2-(Dimethylamino)ethyl]oxy}phenyl)amino]-4-pyrimidinyl}-2-(1-piperidinyl)-1,3-thiazol-4-yl]phenyl}-2,6-difluorobenzamide], for which the pIC50 with SK-MEL-3 tumor cells is less than 6.00; at EGFR, more than 7.00; in the assay on HT-29 tumor cells, 6.00 to 7.00; at ErbB2, more than 7.00; with BT474 tumor cells, 6.00 to 7.00; with A375P F11s tumor cells, 6.00 to 7.00. Besides, the results for the negative-log IC50 (pIC50) in the assay with SK-MEL-28 tumor cells and with Colo205 tumor cells were less than 6.00 and 6.00 to 7.00, respectively.
As to `CCN(CC)CCOc1cccc(Nc2nccc(-c3scnc3-c3cccc(NC(=O)c4cc(F)ccc4F)c3)n2)c1` [Example 97, N-[3-(5-{2-[(3-{[2-(Diethylamino)ethyl]oxy}phenyl)amino]-4-pyrimidinyl}-1,3-thiazol-4-yl)phenyl]-2,5-difluorobenzamide], the pIC50 is more than 7.00 on EGFR; more than 7.00 on ErbB2; 6.00 to 7.00 in the assay on HN5 tumor cells; 6.00 to 7.00 in the assay on BT474 tumor cells; less than 6.00 with SK-MEL-28 tumor cells; less than 6.00 with Colo205 tumor cells.
As to `CCc1nc(-c2cccc(NC(=O)c3c(F)cccc3F)c2)c(-c2ccnc(Nc3ccc(N4CCOCC4)nc3)n2)s1` [Example 118, N-{3-[2-Ethyl-5-(2-{[6-(4-morpholinyl)-3-pyridinyl]amino}-4-pyrimidinyl)-1,3-thiazol-4-yl]phenyl}-2,6-difluorobenzamide trifluoroacetate], the pIC50 in the assay on SK-MEL-3 tumor cells was less than 6.00; in the assay on HT-29 tumor cells it was less than 6.00; in the assay on HN5 tumor cells, 6.00 to 7.00; in the assay with BT474 tumor cells, 6.00 to 7.00; in the assay on A375P F11s tumor cells, less than 6.00; in the assay on SK-MEL-28 tumor cells, less than 6.00. Besides, in the assay on Colo205 tumor cells, the pIC50 is less than 6.00.
Consider `CN(C)CCOc1ccc(Nc2nccc(-c3sc(-c4ccc(O)cc4)nc3-c3cccc(NC(=O)c4cc(F)ccc4F)c3)n2)cc1Cl` [Example 140, N-{3-[5-{2-[(3-Chloro-4-{[2-(dimethylamino)ethyl]oxy}phenyl)amino]-4-pyrimidinyl}-2-(4-hydroxyphenyl)-1,3-thiazol-4-yl]phenyl}-2,5-difluorobenzamide], for which the pIC50 on EGFR was more than 7.00; on ErbB2, more than 7.00; with HN5 tumor cells, 6.00 to 7.00; with BT474 tumor cells, 6.00 to 7.00; in the assay with SK-MEL-28 tumor cells, 6.00 to 7.00; with Colo205 tumor cells, 6.00 to 7.00.
